# Source: US12297190B2, “Modulators of STING (stimulator of interferon genes)” (PFIZER INC., priority 2019, dated 2025)
# Biological target: R232-STING (Homo sapiens, UniProt Q86WV6, H232R)
# Experiment: biochemical
# Sequence of R232-STING (Q86WV6 155-341 H232R): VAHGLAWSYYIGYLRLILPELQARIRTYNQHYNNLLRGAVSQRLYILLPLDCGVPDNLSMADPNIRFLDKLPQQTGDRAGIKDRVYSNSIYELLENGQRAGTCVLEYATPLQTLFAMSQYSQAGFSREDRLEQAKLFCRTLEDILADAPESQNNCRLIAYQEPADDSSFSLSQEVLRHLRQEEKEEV
row,SMILES,Ki
1,"CCn1nc(C)cc1-c1nnc(-c2cc(C(N)=O)cc3c2cnn3CC2CCCN3CCCCC23)[nH]1 (centres unmarked) [ZZZ016, 4-[5-(1-ethyl-3-methyl-1H-pyrazol-5-yl)-4H-1,2,4-triazol-3-yl]-1-[(octahydro-2H-quinolizin-1-yl)methyl]-1H-indazole-6-carboxamide]",826 nM
2,"CCn1nc(C)cc1-c1nnc(-c2cc(C(N)=O)cc3c2cnn3C[C@H]2[C@@H]3CN(C(C)C)C[C@@H]32)[nH]1 [ZZZ017, 4-[5-(1-ethyl-3-methyl-1H-pyrazol-5-yl)-4H-1,2,4-triazol-3-yl]-1-{[(1R,5S,6r)-3-(propan-2-yl)-3-azabicyclo[3.1.0]hexan-6-yl]methyl}-1H-indazole-6-carboxamide]",> 990 nM
3,"CCn1nc(C)cc1-c1nnc(-c2cc(C(N)=O)cc3c2cnn3CC23CCCN2CCC3)[nH]1 [ZZZ019, 4-[5-(1-ethyl-3-methyl-1H-pyrazol-5-yl)-4H-1,2,4-triazol-3-yl]-1-[(tetrahydro-1H-pyrrolizin-7a(5H)-yl)methyl]-1H-indazole-6-carboxamide]",726 nM
4,"CCn1nc(C)cc1-c1nnc(-c2cc(C(N)=O)cc3c2cnn3[C@@H](C)CN(C)C)[nH]1 [ZZZ020, 1-[(2S)-1-(dimethylamino)propan-2-yl]-4-[5-(1-ethyl-3-methyl-1H-pyrazol-5-yl)-4H-1,2,4-triazol-3-yl]-1H-indazole-6-carboxamide]",> 990 nM
5,"CCn1nc(C)cc1-c1nnc(-c2cc(C(N)=O)cc3c2cnn3CCOCCN(C)C)[nH]1 [ZZZ021, 1-{2-[2-(dimethylamino)ethoxy]ethyl}-4-[5-(1-ethyl-3-methyl-1H-pyrazol-5-yl)-4H-1,2,4-triazol-3-yl]-1H-indazole-6-carboxamide]",> 990 nM
6,"CCn1nc(C)cc1-c1nnc(-c2cc(C(N)=O)cc3c2cnn3[C@@H](C)CN2CCCC2)[nH]1 [ZZZ024, 4-[5-(1-ethyl-3-methyl-1H-pyrazol-5-yl)-4H-1,2,4-triazol-3-yl]-1-[(2S)-1-(pyrrolidin-1-yl)propan-2-yl]-1H-indazole-6-carboxamide]",> 990 nM
7,"CCn1nc(C)cc1-c1nnc(-c2cc(C(N)=O)cc3c2cnn3C[C@H]2CCCN2C)[nH]1 [ZZZ027, 4-[5-(1-ethyl-3-methyl-1H-pyrazol-5-yl)-4H-1,2,4-triazol-3-yl]-1-{[(2R)-1-methylpyrrolidin-2-yl]methyl}-1H-indazole-6-carboxamide]",> 990 nM
8,"CCn1nc(C)cc1-c1nnc(-c2cc(C(N)=O)cc3c2cnn3CCN(C)CCOC)[nH]1 [ZZZ030, 4-[5-(1-ethyl-3-methyl-1H-pyrazol-5-yl)-4H-1,2,4-triazol-3-yl]-1-{2-[(2-methoxyethyl)(methyl)amino]ethyl}-1H-indazole-6-carboxamide]",861 nM
9,"CCn1nc(C)cc1-c1nnc(-c2cc(C(N)=O)cc3c2cnn3CCCCN(C)C)[nH]1 [ZZZ034, 1-[4-(dimethylamino)butyl]-4-[5-(1-ethyl-3-methyl-1H-pyrazol-5-yl)-4H-1,2,4-triazol-3-yl]-1H-indazole-6-carboxamide]",> 990 nM
10,"CCn1nc(C)cc1-c1nnc(-c2cc(C(N)=O)cc3c2cnn3CCN2CC(C)C2)[nH]1 [ZZZ036, 4-[5-(1-ethyl-3-methyl-1H-pyrazol-5-yl)-4H-1,2,4-triazol-3-yl]-1-[2-(3-methylazetidin-1-yl)ethyl]-1H-indazole-6-carboxamide]",> 990 nM
11,"CCn1nc(C)cc1-c1nnc(-c2cc(C(N)=O)cc3c2cnn3CCCCN2CCOCC2)[nH]1 [ZZZ037, 4-[5-(1-ethyl-3-methyl-1H-pyrazol-5-yl)-4H-1,2,4-triazol-3-yl]-1-[4-(morpholin-4-yl)butyl]-1H-indazole-6-carboxamide]",727 nM
12,"CCn1nc(C)cc1-c1nnc(-c2cc(C(N)=O)cc3c2cnn3CCN2CCC2)[nH]1 [ZZZ039, 1-[2-(azetidin-1-yl)ethyl]-4-[5-(1-ethyl-3-methyl-1H-pyrazol-5-yl)-4H-1,2,4-triazol-3-yl]-1H-indazole-6-carboxamide]",> 990 nM
13,"CCn1nc(C)cc1-c1nnc(-c2cc(C(N)=O)cc3c2cnn3CCCCN2CCCCC2)[nH]1 [ZZZ043, 4-[5-(1-ethyl-3-methyl-1H-pyrazol-5-yl)-4H-1,2,4-triazol-3-yl]-1-[4-(piperidin-1-yl)butyl]-1H-indazole-6-carboxamide]",> 990 nM
14,"CCn1nc(C)c(F)c1-c1nc(CN)c(-c2nc(C(N)=O)cc3c2cnn3C)o1 [ZZZ045, 4-[4-(aminomethyl)-2-(1-ethyl-4-fluoro-3-methyl-1H-pyrazol-5-yl)-1,3-oxazol-5-yl]-1-methyl-1H-pyrazolo[4,3-c]pyridine-6-carboxamide]",> 900 nM
15,"CCn1nc(CO)cc1-c1n[nH]c(-c2nc(C(N)=O)cc3[nH]ncc23)n1 [ZZZ046, 4-{3-[1-ethyl-3-(hydroxymethyl)-1H-pyrazol-5-yl]-1H-1,2,4-triazol-5-yl}-1H-pyrazolo[4,3-c]pyridine-6-carboxamide]",> 990 nM
16,"Cc1nn(CC(CO)CO)c(-c2n[nH]c(-c3cc(C(N)=O)cc4c3cnn4C)n2)c1F [ZZZ049, 4-(3-{4-fluoro-1-[3-hydroxy-2-(hydroxymethyl)propyl]-3-methyl-1H-pyrazol-5-yl}-1H-1,2,4-triazol-5-yl)-1-methyl-1H-indazole-6-carboxamide]",> 900 nM
17,"CCn1nc(CO)cc1-c1nnc(-c2cc(C(N)=O)cc3c2cnn3C)[nH]1 [ZZZ050, 4-{5-[1-ethyl-3-(hydroxymethyl)-1H-pyrazol-5-yl]-4H-1,2,4-triazol-3-yl}-1-methyl-1H-indazole-6-carboxamide]",> 990 nM
18,"CCn1nc(C)cc1-c1nc(CN)c(-c2nc(C(N)=O)cc3c2cnn3C)o1 [ZZZ051, 4-[4-(aminomethyl)-2-(1-ethyl-3-methyl-1H-pyrazol-5-yl)-1,3-oxazol-5-yl]-1-methyl-1H-pyrazolo[4,3-c] pyridine-6-carboxamide]",191 nM
19,"CCn1nc(CO)c(F)c1-c1nc(-c2nc(C(N)=O)cc3c2cnn3C)n(C)n1 [ZZZ052, 4-{3-[1-ethyl-4-fluoro-3-(hydroxymethyl)-1H-pyrazol-5-yl]-1-methyl-1H-1,2,4-triazol-5-yl}-1-methyl-1H-pyrazolo[4,3-c]pyridine-6-carboxamide]",> 990 nM
20,"CCn1nc(C)c(F)c1-c1n[nH]c(-c2cc(C(N)=O)cc3c2cnn3CCCNC)n1 [ZZZ054, 4-[3-(1-ethyl-4-fluoro-3-methyl-1H-pyrazol-5-yl)-1H-1,2,4-triazol-5-yl]-1-[3-(methylamino)propyl]-1H-indazole-6-carboxamide]",> 1890 nM
21,"CCc1nc(C)[nH]c1-c1n[nH]c(-c2cc(C(N)=O)cc3c2cnn3C)n1 [ZZZ055, 4-[3-(4-ethyl-2-methyl-1H-imidazol-5-yl)-1H-1,2,4-triazol-5-yl]-1-methyl-1H-indazole-6-carboxamide]",> 990 nM

# Results, then the compound that gave them:
row,Ki,SMILES
1,748 nM,"CCn1nc(C)cc1-c1nnc(-c2cc(C(N)=O)cc3c2cnn3CCN2CCC(C)CC2)[nH]1 [ZZZ018, 4-[5-(1-ethyl-3-methyl-1H-pyrazol-5-yl)-4H-1,2,4-triazol-3-yl]-1-[2-(4-methylpiperidin-1-yl)ethyl]-1H-indazole-6-carboxamide]"
2,> 990 nM,"CCn1nc(C)cc1-c1nnc(-c2cc(C(N)=O)cc3c2cnn3C(C)CN2CCCCC2)[nH]1 (centres unmarked) [ZZZ026, 4-[5-(1-ethyl-3-methyl-1H-pyrazol-5-yl)-4H-1,2,4-triazol-3-yl]-1-[1-(piperidin-1-yl)propan-2-yl]-1H-indazole-6-carboxamide]"
3,> 990 nM,"CCn1nc(C)cc1-c1nnc(-c2cc(C(N)=O)cc3c2cnn3CC2(CN(C)C)CC2)[nH]1 [ZZZ028, 1-({1-[(dimethylamino)methyl]cyclopropyl}methyl)-4-[5-(1-ethyl-3-methyl-1H-pyrazol-5-yl)-4H-1,2,4-triazol-3-yl]-1H-indazole-6-carboxamide]"
4,967 nM,"CCn1nc(C)cc1-c1nnc(-c2cc(C(N)=O)cc3c2cnn3C[C@H]2CCCCN2C)[nH]1 [ZZZ032, 4-[5-(1-ethyl-3-methyl-1H-pyrazol-5-yl)-4H-1,2,4-triazol-3-yl]-1-{[(2R)-1-methylpiperidin-2-yl]methyl}-1H-indazole-6-carboxamide]"
5,572 nM,"CCn1nc(C)cc1-c1nnc(-c2cc(C(N)=O)cc3c2cnn3CC2CC3(CCN(C)CC3)C2)[nH]1 [ZZZ033, 4-[5-(1-ethyl-3-methyl-1H-pyrazol-5-yl)-4H-1,2,4-triazol-3-yl]-1-[(7-methyl-7-azaspiro[3.5]nonan-2-yl)methyl]-1H-indazole-6-carboxamide]"
6,> 990 nM,"CCn1nc(C)cc1-c1nnc(-c2cc(C(N)=O)cc3c2cnn3CC[C@@H]2CCN(C)C2)[nH]1 [ZZZ035, 4-[5-(1-ethyl-3-methyl-1H-pyrazol-5-yl)-4H-1,2,4-triazol-3-yl]-1-{2-[(3S)-1-methylpyrrolidin-3-yl]ethyl}-1H-indazole-6-carboxamide]"
7,> 990 nM,"CCn1nc(C)cc1-c1nnc(-c2cc(C(N)=O)cc3c2cnn3C(C)CN2CCCC2)[nH]1 (centres unmarked) [ZZZ040, 4-[5-(1-ethyl-3-methyl-1H-pyrazol-5-yl)-4H-1,2,4-triazol-3-yl]-1-[1-(pyrrolidin-1-yl)propan-2-yl]-1H-indazole-6-carboxamide]"
8,> 900 nM,"CCn1nc(C)cc1-c1nnc(-c2c(C(F)(F)F)c(C(N)=O)cc3c2cnn3C)[nH]1 [ZZZ044, 4-[5-(1-ethyl-3-methyl-1H-pyrazol-5-yl)-4H-1,2,4-triazol-3-yl]-1-methyl-5-(trifluoromethyl)-1H-indazole-6-carboxamide]"
9,> 90 nM,"CCn1nc(C)cc1-c1nc(-c2nc(C(N)=O)cc3c2cnn3C)n(CCN)n1 [ZZZ047, 4-[1-(2-aminoethyl)-3-(1-ethyl-3-methyl-1H-pyrazol-5-yl)-1H-1,2,4-triazol-5-yl]-1-methyl-1H-pyrazolo[4,3-c]pyridine-6-carboxamide]"
10,912 nM,"CCn1nc(C)c(C(F)(F)F)c1-c1nnc(-c2cc(C(N)=O)cc3c2cnn3C)[nH]1 [ZZZ048, 4-{5-[1-ethyl-3-methyl-4-(trifluoromethyl)-1H-pyrazol-5-yl]-4H-1,2,4-triazol-3-yl}-1-methyl-1H-indazole-6-carboxamide]"
11,> 990 nM,"CCn1nc(C)c(I)c1-c1nnc(-c2cc(C(N)=O)cc3c2cnn3C)[nH]1 [ZZZ053, 4-[5-(1-ethyl-4-iodo-3-methyl-1H-pyrazol-5-yl)-4H-1,2,4-triazol-3-yl]-1-methyl-1H-indazole-6-carboxamide]"
